{"source": "patent US20080166396A1", "about": "“Boronate Medicaments Suitable for Short Duration Anticoagulation” (Trigen Holdings AG Clareville House, priority 2004, published 2008)", "key": {"[1]": {"experiment": "Maximum aqueous solubility, salt shaken in water at 37° C., filtered, UV", "type": "physicochemical", "details": "25 mg of dried salt shaken in water at 37° C."}, "[2]": {"experiment": "Stability: HPLC assay before and after drying over phosphorus pentoxide for 1 week", "type": "physicochemical", "details": "listed as TRI 50c Lys salt; for Amount: 5 mg in 5 mL", "protocol": "An assay of TRI 50c and its sodium and lysine salts before and after drying.\nFor sample analysis, 5 mg of dried and non-dried material was weighed in a 5 mL volumetric flask and dissolved in 1 mL acetonitrile and filled up with demineralised water to 5 mL.\nThe quantitative evaluation was performed using an HPLC-PDA method."}, "human α-thrombin": {"biological_target": "T1, human α-thrombin (Homo sapiens, UniProt P00734)", "T1 construct": "50 μl of human α-thrombin (0.25 NIHμ/ml) was added", "details": "reported by Deadman et al, J. Med. Chem. 1995; cited from earlier work"}, "Thrombin Time (TT)": {"system": "Thrombin Time (TT)", "experiment": "Single oral doses of TGN 167 tablets in healthy male subjects", "type": "in vivo", "protocol": "TGN 167 tablets described above were administered via the oral route to 10 healthy male subjects as single doses (randomised double blind placebo controlled study). The group consisted of 10 healthy male volunteers, 9 of whom received active compound and one of whom received placebo. An amendment was introduced for the last panel, allowing 15 subjects (instead of 9) to receive a 600 mg dose. The interval between each dose of TGN 167 was one week minimum. The allocation of the placebo was such that each volunteer would only receive placebo once during the course of the study.\nOrally administered doses were: 75 mg (one tablet), 150 mg (two tablets), 300 mg (four tablets) and 600 mg (eight tablets)."}, "[3]": {"experiment": "Comparative storage stability of sodium and calcium salts (moisture-permeable packaging)", "type": "physicochemical", "source_text": "In both studies the active pharmaceutical ingredient was stored in gray sealed double bags within a PE/PP screw cap closed cylinder."}, "[4]": {"experiment": "Solubility of TRI 50c monosodium salt at different pH values / reconstitution", "type": "physicochemical", "source_text": "A first class of formulation, therefore, comprises particulate formulations, i.e. powders and granules, for oral administration after reconstitution into a liquid preparation, and preferably into a drinkable preparation. It is generally preferred for the liquid preparation to be a solution rather than a suspension and certain particulate formulations are for dissolving to form a drinking solution. The formulation may be for reconstitution into a suspension or more normally a solution having a volume of from about 50 ml to about 150 ml. The disclosure also contemplates reconstituted volumes of less than about 50 ml or of more than about 150 ml, e.g. of up to about 250 ml and more often of up to about 200 ml.\nHowever, a solution with a pH of 9.5 will often be undesirably distasteful to drink. Accordingly, a pharmaceutically acceptable organic acid may be included in the particulate formulation in an amount selected to reduce the pH to a value at which the solution is more palatable but at which a solution of drinkable quantity (e.g. about 50 ml to about 150 ml) may be formed by reconstituting the particulate formulation. As the organic acid may be mentioned citric acid, tartaric acid or malic acid, for example. In many instances, citric acid is chosen.\nIn a first series of experiments, this amount of the salt was dissolved in 50 ml water to form a solution of approximately pH 9.5. Dilute aqueous HCl was added to determine how much the pH could be reduced before precipitation occurred.\nIn a second series of experiments, the same amount of the salt was dissolved in 150 ml water, and citric acid was added. […] Since acid solutions tend to be more palatable than alkaline ones, and citric acid is a common flavouring agent, this behaviour of the salt is highly beneficial. […] In general, it is contemplated that the boronate will be formulated to form a reconstituted solution having a pH of from 4 to 8, e.g. 4 to 7, optionally 5 to 6."}, "[5]": {"experiment": "Excretion of administered dose as TRI 50c species", "details": "in vivo"}, "[6]": {"details": "dry (1 week over phosphorus pentoxide)"}}, "note": "Counter-ions that a name gives are not always drawn. Marks after values point to notes of the source that are not given here.", "data": [{"compound": "COCCC[C@H](NC(=O)[C@@H]1CCCN1C(=O)[C@@H](Cc1ccccc1)NC(=O)OCc1ccccc1)B(O)O", "note": "[Lithium Salt of TRI50C]", "values": [{"measurement": "observation on dissolution", "setting": "[1]", "value": "left a white residue of undissolved material"}]}, {"compound": "COCCC[C@H](NC(=O)[C@@H]1CCCN1C(=O)[C@@H](Cc1ccccc1)NC(=O)OCc1ccccc1)B(O)O", "note": "[Lysine Salt of TRI50C]", "values": [{"measurement": "Amount", "setting": "[2]; [6]", "value": 813.3, "unit": "µg/mL"}, {"measurement": "Purity", "setting": "[2]; [6]", "value": 90.17, "unit": "% area"}, {"measurement": "Amount", "setting": "[2]; non-dried", "value": 809.8, "unit": "µg/mL"}, {"measurement": "Purity", "setting": "[2]; non-dried", "value": 92.25, "unit": "% area"}]}, {"compound": "CNC[C@H](O)[C@@H](O)[C@H](O)[C@H](O)CO.COCCC[C@H](NC(=O)[C@@H]1CCCN1C(=O)[C@@H](Cc1ccccc1)NC(=O)OCc1ccccc1)B(O)O", "note": "[N-METHYL-D-GLUCAMINE SALT OF TRI50C]", "values": [{"measurement": "observation on dissolution", "setting": "[1]", "value": "fully dissolve"}]}, {"compound": "COCCC[C@H](NC(=O)[C@@H]1CCCN1C(=O)[C@@H](Cc1ccccc1)NC(=O)OCc1ccccc1)B([O-])O.[K+]", "note": "[Potassium Salt of TRI50C]", "values": [{"measurement": "observation on dissolution", "setting": "[1]", "value": "left a white residue of undissolved material"}]}, {"compound": "COCCCC(NC(=O)C1CCCN1C(=O)C(Cc1ccccc1)NC(=O)OCc1ccccc1)B1OC(C)(C)C(C)(C)O1", "note": "[TRI 50b, Cbz-(R)-Phe-Pro-BoroMpg-OPinacol]", "values": [{"measurement": "Ki", "setting": "human α-thrombin", "value": 7, "unit": "nM"}]}, {"compound": "COCCC[C@H](NC(=O)[C@@H]1CCCN1C(=O)[C@@H](Cc1ccccc1)NC(=O)OCc1ccccc1)B([O-])O.COCCC[C@H](NC(=O)[C@@H]1CCCN1C(=O)[C@@H](Cc1ccccc1)NC(=O)OCc1ccccc1)B([O-])O.[Ca+2]", "note": "[TRI 50c calcium salt]", "values": [{"measurement": "time at which all TT had returned to baseline", "setting": "Thrombin Time (TT); after oral administration", "value": 10, "unit": "h"}, {"measurement": "adverse clinical events (general or cardiovascular)", "setting": "Thrombin Time (TT); oral, any dose, study period of 24 hours", "value": "no adverse clinical events"}, {"measurement": "observation on dissolution", "setting": "[1]", "value": "left a white residue of undissolved material"}, {"measurement": "Tri50c (w/w %, LOD corrected)", "setting": "[3]; T = 0, LOD = loss on drying", "value": "(99.7) w/w %"}, {"measurement": "Tri50c (w/w %, LOD corrected)", "setting": "[3]; T = 1, 25° C./60% r.h.", "value": "(101.5) w/w %"}, {"measurement": "Tri50c (w/w %, LOD corrected)", "setting": "[3]; T = 1, 40° C./75% r.h.", "value": "(100.6) w/w %"}, {"measurement": "Tri50c (w/w %, LOD corrected)", "setting": "[3]; T = 1, −20° C.", "value": "(102.7) ^x w/w %"}, {"measurement": "Tri50c (w/w %, LOD corrected)", "setting": "[3]; T = 3, 25° C./60% r.h.", "value": "(104.3) w/w %"}, {"measurement": "Tri50c (w/w %, LOD corrected)", "setting": "[3]; T = 3, 40° C./75% r.h.", "value": "(82.0) w/w %"}, {"measurement": "Tri50c (w/w %, LOD corrected)", "setting": "[3]; T = 3, −20° C.", "value": "(103.0) ^x w/w %"}, {"measurement": "Tri50c (w/w %, LOD corrected)", "setting": "[3]; T = 12, 25° C./60% r.h.", "value": "(94.8 w/w) w/w %"}]}, {"compound": "COCCC[C@H](NC(=O)[C@@H]1CCCN1C(=O)[C@@H](Cc1ccccc1)NC(=O)OCc1ccccc1)B(O)O.[Na+]", "note": "[TRI 50c monosodium salt, Cbz-(R)-Phe-(S)-Pro-(R)-Mpg-B(OH)2 monosodium salt]", "values": [{"measurement": "observation on dissolution", "setting": "[1]", "value": "left a white residue of undissolved material"}, {"measurement": "concentration of boronate salt solution formed", "setting": "[4]; at a pH of about 9.5", "value": "up to 600 mg/ml"}, {"measurement": "pH of solution", "setting": "[4]; salt equivalent to 600 mg TRI 50c dissolved in 10 ml water", "value": 9.88}, {"measurement": "pH of solution", "setting": "[4]; salt equivalent to 600 mg TRI 50c dissolved in 50 ml water", "value": "~9.5"}, {"measurement": "Tri50c (w/w %, LOD corrected)", "setting": "[3]; T = 0, LOD = loss on drying", "value": 101.5, "unit": "w/w %"}, {"measurement": "Tri50c (w/w %, LOD corrected)", "setting": "[3]; T = 1, 25° C./60% r.h.", "value": 103.6, "unit": "w/w %"}, {"measurement": "Tri50c (w/w %, LOD corrected)", "setting": "[3]; T = 1, 40° C./75% r.h.", "value": 94.5, "unit": "w/w %"}, {"measurement": "Tri50c (w/w %, LOD corrected)", "setting": "[3]; T = 1, −20° C.", "value": 104.3, "unit": "w/w %"}, {"measurement": "Tri50c (w/w %, LOD corrected)", "setting": "[3]; T = 3, 25° C./60% r.h.", "value": 100.4, "unit": "w/w %"}, {"measurement": "Tri50c (w/w %, LOD corrected)", "setting": "[3]; T = 3, 40° C./75% r.h.", "value": 52.2, "unit": "w/w %"}, {"measurement": "Tri50c (w/w %, LOD corrected)", "setting": "[3]; T = 12, 25° C./60% r.h.", "value": 71.2, "unit": "w/w %"}, {"measurement": "administered dose excreted as TRI 50c species", "setting": "[5]", "value": 14, "unit": "%"}]}]}
